In US20070166547A1, “Use of a layer consisting of hydrophobic linear, or two-dimensional polycyclic aromatics as a barrier layer or an encapsulation and electric components constructed with a layer of this type and comprising organic polymers” (priority 2003, published 2007):
Marks after values point to notes of the source that are not given here.

Columns and labels:
plasma hemostasis [1] = assay: Prothrombin time after intravenous administration; format: in vivo, rabbit
Description: (§1) The investigations were performed on 72 rabbits of the “Chinchilla” breed with a mass of 2.5±0.3 kg, who were administered which solutions of compounds 2, 15, 21, 37 in doses of 15, 30 and 60 mg/kg intravenously. The experiments included the thrombin-test (series No. 7300) and the coagulability-test (series No. 5000) purchased from the scientific-and-production association (SPA) “Renam”, thromboplastin (series No. 240600) and calcium chloride purchased from the SPA “MedioLab”
(§2) The static parameters of the blood and plasma coagulation (partial activated thromboplastin time, thrombin time, maximum coagulation activity (test for auto coagulation) were determined using the Behnk Electronic coagulometer (Germany). The operating principle of this instrument is based on the fact that the formed blood clot breaks the contacts of the pulse counter in the flask-pin circuit, said pin permanently oscillating in a vertical plane. The moment of formation of the clot is registered by stopping the stop watch hand.
(§3) The measurements were effected at a constant temperature of 37° C. maintained by a temperature control unit.
The method of its determination is based on estimation of the coagulation of citrate or oxalic blood plasma, when it is mixed with thromboplastin and a calcium chloride solution. Since under these conditions the time of formation of the clot depends on the content of II, VII, IX and X factors in the investigated plasma sample, now the test is called “thromboplastin time by Quick” or “activity thromboplastin complex”.
Compounds 2, 15, 21, 37 according to the invention at a concentration of 15, 30 and 60 mg/kg were administered to the above experimental animals intravenously and their blood was taken off after 15, 30, 60 and 120 minutes after the administration.
Citrate blood containing 1 part of citrate per 9 parts of native blood was centrifuged at 3000 rev/min for 10 minutes to obtain plasma deprived of thrombocytes.
Added into a test tube in a water bath were 0.1 ml of plasma and 0.1 ml of a thromboplastin solution. After 60 seconds, 0.1 ml of 0.277% solution of calcium chloride was added and the time of reaction T1 in seconds was registered.

[2] = test system: metabolism of nitrogen oxide; assay: Morphine abstinence model: nitrites and nitrates NOX− in blood plasma, liver and brain; format: in vivo, rats Wistar
Description: The experiments were carried out on rats in series of 7 animals on each compound according to the invention. Non-morphinized animal with not administered with compounds according to the invention were used as a control group. […] Then the rats were decapitated, the blood from somnolent arteries was collected in test tubes with solution EDTA as an anticoagulant, centrifuged at 1500 g for 15 minutes at 4° C.
To estimate the intensity of metabolism of nitrogen oxide in rats, quantitative determination of stable metabolites of nitrogen oxide—nitrites and nitrates NOX^− in the blood plasma, supernatanates of the liver and thymus gland, a study was conducted by a spectrometric method, and in the brain supernatanates by a […] method.
The spectrometric method is based the reaction of nitrites with the Griss reagent (a mixture of 2% solution of sulfanilamide and 0.2% N-(1-naphthyl)ethylene diamine. At the first step the nitrite reacts with sulfanilamide with formation of diazonium salt, and then with the second component to form azo dye with an adsorption maximum at 540 nm. For reduction of nitrates into nitrites, a fermentative method was used with bacterial reductase nitrate (Grisham M. B. et al., 1995). The samples of plasma and supernatant of the liver deproteinizated at 100° C. for 5 minutes incubated for 30 minutes at 37° C. in 50.0 mM of HEPES pH 7.4 in the presence of 0.2 unit/ml of Aspergillus reductase nitrate, 5.0 mkM of FAD and 0.1 mM of NAD-Ph. At the end of the reaction lactate dehydrogenase and pyruvate were added for isolation of NAD-Ph interfering with the Griss reaction. Then the Griss reagent was added and after 10-minute incubation the light absorption of the samples was measured at 540 nm. To amount of NOX^− was calculated using sodium nitrate as a standard.
The fluorometric method is based on calculation of the nitrite level by the intensity fluorescence of 2,3-diaminonaphthotriazole, a product of reaction of 2,3-diaminonaphthalene (DAN) and nitrite in an acidic medium (Misko T. R., Schilling R. J., Salvemini D. et al. “A fluorometric assay for the measurement of nitrite of biological samples”. Anal. Biochem., 1993, v. 214, p. 11-16). The brain supernatants deproteinizated at 100° C. were placed in a nitrite regenerating system containing 0.125 unit/ml of nitrate reductases, 25 mkM NADPh and 25 mkM FAD prepared in a 20-mM Tris-HCl buffer with pH 7.6 and incubated for 30 minutes at 37° C. The lactatedehydrogenase/pyruvate system was used for oxidation of the NADPh. Then 316 mkM of the DAN solution in 0.62 M of hydrochloric acids were added and the mixture was incubated for 10 minutes in darkness.
280 mM of NaOH were added for stabilization of the fluorescence of the formed 2,3-diaminonaphthotriazole. The fluorescence intensity was measured in the spectrofluorimeter Hitachi F-3000 at a wavelength of excitation of 365 nm and an emission of 405 nm. The concentration of NOX^− in the brain was calculated by means of a standard solution of sodium nitrate.

plasma hemostasis [3] = assay: Thrombin time after intravenous administration; format: in vivo, rabbit
Description: as §1, §2, §3
The “thrombin time” characterizes the rate of transformation of fibrinogen into fibrin. It was determined by measuring the coagulation time of plasma deprived of thrombocytes under the effect of thrombin standardized by the control plasma.
0.2 ml of a thrombin solution was added to 0.2 ml of the test blood plasma of experimental animals, from whom the blood was taken 15, 30, 60 and 120 minutes after the intravenous administration of compounds 2, 15, 21, 37 according to the invention in doses of 15, 30, 60 mg/kg incubated for 1 minute at a temperature of 37° C. and the time of formation of clot T2 in seconds in a coagulometer of the Behnk Electronic Company (Germany).

[4] = compound alone 20.0 mg/kg intramuscularly
[5] = morphinized rats then compound 20.0 mg/kg intramuscularly

## O=c1[nH][nH]c(=O)c2c(Br)ncnc12.[K] [Compound 37, potassium salt of 4-bromine-pyrimido[4,5-D]-6H-pyridazine-5,8-dione]
Plasma hemostasis [1]; dose 15.0 mg/kg intravenously
  T, s After 120 minutes (prothrombin time): 11.8 ± 0.1 s
  T, s after 15 minutes (prothrombin time): 11.6 ± 0.2 s
  T, s after 30 minutes (prothrombin time): 11.6 ± 0.1 s
  T, s after 60 minutes (prothrombin time): 11.5 ± 0.2 s
Plasma hemostasis [1]; dose 30.0 mg/kg intravenously
  T, s After 120 minutes (prothrombin time): 11.1 ± 0.1 s
  T, s after 15 minutes (prothrombin time): 11.3 ± 0.1 s
  T, s after 30 minutes (prothrombin time): 11.2 ± 0.2 s
  T, s after 60 minutes (prothrombin time): 11.4 ± 0.1 s
Plasma hemostasis [1]; dose 60.0 mg/kg intravenously
  T, s After 120 minutes (prothrombin time): 12.0 ± 0.1 s
  T, s after 15 minutes (prothrombin time): 12.1 ± 0.1 s
  T, s after 30 minutes (prothrombin time): 12.0 ± 0.1 s
  T, s after 60 minutes (prothrombin time): 12.1 ± 0.2 s
Plasma hemostasis [1]; doses of 15.0, 30.0, 60.0 mg/kg
  effect on the prothrombin time index (overall): have no effect on the prothrombin time index
[2]; [4]
  Nitrites in blood plasma, Control + Compound: 16.13 ± 1.80 mkmol/ml
  Nitrites in brain, Cortex of cerebrum, Control + Compound: 4.36 ± 0.24 nmol/mg of protein
  Nitrites in brain, Hypothalamus, Control + Compound: 6.79 ± 0.92 nmol/mg of protein
  Nitrites in brain, Mesencephalon, Control + Compound: 6.84 ± 0.56 nmol/mg of protein
  Nitrites in liver, Control + Compound: 0.262 ± 0.018 nmol/mg of protein
[2]; [5]
  Nitrites in blood plasma, Control + Morphine + compound: 15.33 ± 0.87 mkmol/ml
  Nitrites in brain, Cortex of cerebrum, Control + Morphine + compound: 4.77 ± 0.28 nmol/mg of protein
  Nitrites in brain, Hypothalamus, Control + Morphine + compound: 6.52 ± 0.83 nmol/mg of protein
  Nitrites in brain, Mesencephalon, Control + Morphine + compound: 5.63 ± 0.37 nmol/mg of protein
  Nitrites in liver, Control + Morphine + compound: 0.274 ± 0.01 nmol/mg of protein
Plasma hemostasis [3]; dose 15.0 mg/kg intravenously
  T2, s After 120 minutes (thrombin time): 15.6* s
  T2, s after 15 minutes (thrombin time): 16.9* s
  T2, s after 30 minutes (thrombin time): 18.2* s
  T2, s after 60 minutes (thrombin time): 16.3* s
Plasma hemostasis [3]; dose 30.0 mg/kg intravenously
  T2, s After 120 minutes (thrombin time): 15.2* s
  T2, s after 15 minutes (thrombin time): 19.5* s
  T2, s after 30 minutes (thrombin time): 20.3* s
  T2, s after 60 minutes (thrombin time): 21.0* s
Plasma hemostasis [3]; dose 60.0 mg/kg intravenously
  T2, s After 120 minutes (thrombin time): 15.0* s
  T2, s after 15 minutes (thrombin time): 16.6* s
  T2, s after 30 minutes (thrombin time): 17.8* s
  T2, s after 60 minutes (thrombin time): 16.2* s
